# Patent US20240368050A1, “ENHANCED PERFORMANCE UREASE INHIBITOR, COMPOSITIONS AND METHODS THEREOF” (priority 2023, published 2024)
# Where two headings read alike, the source gives them in different places.
# Experiments:
# [1] = test system: urease; type: biochemical
# [2] = test system: urease; experiment: Longevity of urea protection by urease inhibitor; settings: ~0.1% NBPT; according to the literature and own studies
# From the text: Urea can only benefit plants as an aqueous solution, so the protecting urease inhibitor NBPT must be also dissolved and spread along with urea.
# [3] = ammonia after 1 week, NBPT (PG, 26.70%, 8 mg) alone or oxidant added per stated mg of NBPT
# [4] = ammonia after 3 days, NBPT (PG, 26.70%, 8 mg) alone or oxidant added per stated mg of NBPT
compound,measurement,setting,value
"CCCCNP(N)(N)=O [NBPTO, oxidized N-(n-Butyl)thiophosphoric triamide]","Urease Inhibitor Test (ammonia ppm), 1 week",[1],0.6 ppm
same,"Urease Inhibitor Test (ammonia ppm), 2 weeks",[1],1 ppm
same,"Urease Inhibitor Test (ammonia ppm), 3 weeks",[1],5 ppm
same,"Urease Inhibitor Test (ammonia ppm), 3 days",[1],0.05 ppm
same,urease inhibition increase in comparison with NBPT,[1],up to eight-fold urease inhibition increase
"OO [Hydrogen Peroxide, 10%, Hydrogen Peroxide]","Urease Inhibitor Test with additional oxidant components (ammonia ppm), 1 week",[1],400 ppm
same,"Urease Inhibitor Test with additional oxidant components (ammonia ppm), 3 days",[1],0.1 ppm
O=S(=O)([O-])OOS(=O)(=O)[O-].[K+].[K+] [Potassium Persulfate],"Urease Inhibitor Test with additional oxidant components (ammonia ppm), 1 week",[1]; [3],140 ppm
same,"Urease Inhibitor Test with additional oxidant components (ammonia ppm), 3 days",[1]; [4],1 ppm
"CCCCNP(N)(N)=S [NBPT, N-(n-Butyl)thiophosphoric triamide, reference compound]",longevity of urea protection,[2],around one week
same,"Urease Inhibitor Test with additional oxidant components (ammonia ppm), 1 week",[1]; [3],800 ppm
same,"Urease Inhibitor Test (ammonia ppm), 1 week","[1]; ammonia after 1 week, treatment + about 5.0 g urea in 10 mL water on 60 g soil, sealed",35 ppm
same,"Urease Inhibitor Test (ammonia ppm), 2 weeks","[1]; ammonia after 2 weeks, treatment + about 5.0 g urea in 10 mL water on 60 g soil, sealed",600 ppm
same,"Urease Inhibitor Test with additional oxidant components (ammonia ppm), 3 days",[1]; [4],5 ppm
same,"Urease Inhibitor Test (ammonia ppm), 3 days","[1]; ammonia after 3 days, treatment + about 5.0 g urea in 10 mL water on 60 g soil, sealed",13 ppm
